According to publication PMC7259601 (PLoS ONE, 2020):

Legend:
Mouse recombinant KDM1B = target: T1, Mouse recombinant KDM1B (Mus musculus, UniProt Q8CIG3); test: KDM1B inhibition assay; type: biochemical
T1 construct: gift: Dr. Andrea Mattevi, University of Pavia
Method: Mouse recombinant KDM1B protein was kindly provided by Dr. Andrea Mattevi from the University of Pavia. The biochemical activity assay was carried out at room temperature in a similar manner as for KDM1A but using 50 mM HEPES pH 8.5 as the reaction buffer, but with 10 min of incubation of KDM1B in the presence of dimethylated H3K4 peptide at the KMapp of KDM1B.

[1] = system: isolated Sprague-Dawley rats; test: Resident Intruder test, rat isolation rearing model; type: in vivo; conditions: 0.16 or 0.48 mg/kg/day
Method: Sprague Dawley Rats: Right after the weaning (post natal day 21-23), 72 Sprague-Dawley male rats (Charles River, bred in the UAB Animal facility) were divided in two groups: Control (N = 18), maintained 3-4 animals per cage; Isolated (N = 54), 1 animal per cage ([…] 1291H Eurostandard type III with ECOPURE CHIPS 6 bedding material, Harlan). Animals were maintained at 21 ± 2 °C controlled temperature in a 12 hr light / dark cycle (lights on at 8:00 am) with ad libitum access to food (2014 TEKLAD, Harlan) and water. […] Control animals were treated with vehicle. The administration route was drinking water and the vehicle 1.8% 2-Hydroxypropyl-b-cyclodextrin. Drug concentration was adjusted weekly by body weight and water consumption. During the last week of treatment, all animals were tested in the EPM and, on a different day, in the RI test (N = 12 / group). After depth anesthesia with Isoflurane, animals were perfused with saline solution followed by paraformaldehyde in order to obtain brain samples for histological analysis.
The protocol was modified from previously described. Briefly, the test subject (resident) was maintained in its home cage without bedding changes for one week. […] In mice the session was video-recorded for 20 min and social interaction (social interaction and rearings) and aggressive behavior (lateral threats, clinch attacks, keep-down behavior) were analyzed. […] In rats the session was video recorded for 15 min and social interaction (active and passive social interaction, number of evitations and time without social interaction) were analyzed. […] In addition, the time spent without social interaction was also measured.
Resident Intruder (RI): Mice were video-recorded for 20 min and social interaction and aggressive behavior were analyzed. Rats were video recorded for 15 min and social interaction (active and passive social interaction, number of evitations and time without social interaction) were analyzed.

19 epigenetic targets = test: Panel of 19 epigenetic targets; type: biochemical; conditions: 10 μM
Method: (§1) […]. MAO-A inhibition at 10 μM was 37%, in line with internal data.

(h)p300 = (h)p300 (Homo sapiens, UniProt Q09472); test: Epigenetic selectivity profile; type: biochemical
Method: as §1

DNMT1 (h) = DNMT1 (h) (Homo sapiens, UniProt P26358); test: Epigenetic selectivity profile; type: biochemical
DNMT1 (h), sequence (P26358 whole entry): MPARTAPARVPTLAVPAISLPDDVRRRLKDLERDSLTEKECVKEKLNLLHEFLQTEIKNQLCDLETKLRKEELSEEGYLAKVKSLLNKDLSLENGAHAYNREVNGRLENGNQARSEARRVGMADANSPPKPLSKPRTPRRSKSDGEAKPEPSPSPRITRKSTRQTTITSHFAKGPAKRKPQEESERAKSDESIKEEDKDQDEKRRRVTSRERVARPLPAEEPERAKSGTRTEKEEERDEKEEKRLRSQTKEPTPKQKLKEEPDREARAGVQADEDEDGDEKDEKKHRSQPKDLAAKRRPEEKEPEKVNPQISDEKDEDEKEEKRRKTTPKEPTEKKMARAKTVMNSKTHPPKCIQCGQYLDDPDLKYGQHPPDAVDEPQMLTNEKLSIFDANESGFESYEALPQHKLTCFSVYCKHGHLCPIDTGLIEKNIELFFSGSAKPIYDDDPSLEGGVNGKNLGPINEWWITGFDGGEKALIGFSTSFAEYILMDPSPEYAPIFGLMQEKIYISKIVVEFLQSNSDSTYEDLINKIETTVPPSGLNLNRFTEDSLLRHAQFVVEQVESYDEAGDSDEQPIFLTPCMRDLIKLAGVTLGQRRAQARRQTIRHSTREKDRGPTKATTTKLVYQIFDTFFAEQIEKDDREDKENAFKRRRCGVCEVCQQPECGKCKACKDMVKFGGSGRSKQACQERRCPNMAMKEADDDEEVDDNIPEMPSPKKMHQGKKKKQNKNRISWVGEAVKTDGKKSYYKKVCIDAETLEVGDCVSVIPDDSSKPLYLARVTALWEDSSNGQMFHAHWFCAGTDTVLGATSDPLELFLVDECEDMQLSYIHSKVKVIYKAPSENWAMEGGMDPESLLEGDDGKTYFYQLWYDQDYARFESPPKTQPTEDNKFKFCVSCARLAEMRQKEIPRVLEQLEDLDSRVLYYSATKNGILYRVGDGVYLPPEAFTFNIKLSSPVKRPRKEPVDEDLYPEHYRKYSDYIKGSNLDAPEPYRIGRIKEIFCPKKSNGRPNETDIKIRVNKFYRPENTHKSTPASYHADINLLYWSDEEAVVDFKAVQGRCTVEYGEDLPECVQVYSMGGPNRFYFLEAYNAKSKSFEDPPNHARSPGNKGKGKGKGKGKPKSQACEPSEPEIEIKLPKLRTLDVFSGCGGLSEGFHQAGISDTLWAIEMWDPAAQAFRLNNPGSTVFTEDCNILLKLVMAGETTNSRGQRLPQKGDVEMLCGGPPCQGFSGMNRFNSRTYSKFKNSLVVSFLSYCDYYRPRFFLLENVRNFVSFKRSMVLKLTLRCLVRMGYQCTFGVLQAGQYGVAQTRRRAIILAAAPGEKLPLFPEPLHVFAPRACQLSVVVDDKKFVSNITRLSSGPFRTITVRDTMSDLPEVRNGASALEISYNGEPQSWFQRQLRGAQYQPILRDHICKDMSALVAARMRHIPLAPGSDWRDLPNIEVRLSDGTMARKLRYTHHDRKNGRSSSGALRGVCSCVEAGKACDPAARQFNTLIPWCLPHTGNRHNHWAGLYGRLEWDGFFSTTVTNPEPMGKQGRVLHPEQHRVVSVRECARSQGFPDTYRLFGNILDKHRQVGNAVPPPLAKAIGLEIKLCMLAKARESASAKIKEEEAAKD
Method: as §1

DOT1L (h) = DOT1L (h) (Homo sapiens, UniProt Q8TEK3); test: Epigenetic selectivity profile; type: biochemical
Method: as §1

FBXL10 (h) = FBXL10 (h) (Homo sapiens, UniProt Q8NHM5); test: Epigenetic selectivity profile; type: biochemical
FBXL10 (h), sequence (Q8NHM5 whole entry): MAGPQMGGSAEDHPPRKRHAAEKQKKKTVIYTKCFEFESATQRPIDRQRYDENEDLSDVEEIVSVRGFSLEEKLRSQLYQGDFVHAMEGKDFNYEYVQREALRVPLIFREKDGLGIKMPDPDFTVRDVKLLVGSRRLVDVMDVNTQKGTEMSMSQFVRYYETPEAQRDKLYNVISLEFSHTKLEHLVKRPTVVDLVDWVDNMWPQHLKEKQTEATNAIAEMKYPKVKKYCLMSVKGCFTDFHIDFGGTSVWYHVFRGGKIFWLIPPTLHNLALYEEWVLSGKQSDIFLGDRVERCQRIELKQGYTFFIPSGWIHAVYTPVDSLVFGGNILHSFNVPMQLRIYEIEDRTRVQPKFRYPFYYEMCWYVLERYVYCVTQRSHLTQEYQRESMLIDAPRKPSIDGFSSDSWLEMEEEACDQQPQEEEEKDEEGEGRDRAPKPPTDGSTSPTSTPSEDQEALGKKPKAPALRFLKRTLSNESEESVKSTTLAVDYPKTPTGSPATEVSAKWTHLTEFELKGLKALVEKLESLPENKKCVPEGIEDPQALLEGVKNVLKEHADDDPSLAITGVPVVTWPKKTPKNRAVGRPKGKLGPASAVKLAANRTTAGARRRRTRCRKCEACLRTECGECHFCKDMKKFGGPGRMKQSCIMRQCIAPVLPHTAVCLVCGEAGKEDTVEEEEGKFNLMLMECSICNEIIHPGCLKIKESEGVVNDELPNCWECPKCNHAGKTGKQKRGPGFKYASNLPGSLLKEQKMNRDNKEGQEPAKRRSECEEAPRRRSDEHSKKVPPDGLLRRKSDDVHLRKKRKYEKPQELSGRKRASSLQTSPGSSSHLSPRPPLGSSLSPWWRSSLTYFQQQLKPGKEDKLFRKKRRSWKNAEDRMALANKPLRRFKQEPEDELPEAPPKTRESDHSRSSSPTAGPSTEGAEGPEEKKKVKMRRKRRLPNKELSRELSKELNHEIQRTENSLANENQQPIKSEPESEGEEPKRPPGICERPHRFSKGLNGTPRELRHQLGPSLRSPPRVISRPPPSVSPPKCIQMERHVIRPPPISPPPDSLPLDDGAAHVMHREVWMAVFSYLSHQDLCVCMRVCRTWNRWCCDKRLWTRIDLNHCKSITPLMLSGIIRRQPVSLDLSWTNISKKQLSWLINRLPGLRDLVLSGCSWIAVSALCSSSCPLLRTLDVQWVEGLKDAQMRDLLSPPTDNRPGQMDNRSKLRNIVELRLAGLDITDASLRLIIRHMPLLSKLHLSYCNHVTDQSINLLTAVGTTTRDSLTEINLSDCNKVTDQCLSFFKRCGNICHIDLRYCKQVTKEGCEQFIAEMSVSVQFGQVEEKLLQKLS
Method: as §1

HDAC11 (h) = HDAC11 (h) (Homo sapiens, UniProt Q96DB2); test: Epigenetic selectivity profile; type: biochemical
HDAC11 (h), sequence (Q96DB2 whole entry): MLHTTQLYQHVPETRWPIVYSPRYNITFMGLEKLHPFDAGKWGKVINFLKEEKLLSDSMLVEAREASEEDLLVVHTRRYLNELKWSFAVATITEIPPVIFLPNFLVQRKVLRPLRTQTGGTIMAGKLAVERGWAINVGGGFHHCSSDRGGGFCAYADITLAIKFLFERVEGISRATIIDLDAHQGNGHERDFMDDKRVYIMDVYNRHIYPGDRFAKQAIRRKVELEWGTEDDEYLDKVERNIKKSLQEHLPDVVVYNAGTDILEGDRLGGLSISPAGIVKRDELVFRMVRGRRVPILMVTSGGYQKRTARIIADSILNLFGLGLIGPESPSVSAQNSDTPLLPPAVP
Method: as §1

HDAC3 (h) = HDAC3 (h) (Homo sapiens, UniProt O15379); test: Epigenetic selectivity profile; type: biochemical
HDAC3 (h), sequence (O15379 whole entry): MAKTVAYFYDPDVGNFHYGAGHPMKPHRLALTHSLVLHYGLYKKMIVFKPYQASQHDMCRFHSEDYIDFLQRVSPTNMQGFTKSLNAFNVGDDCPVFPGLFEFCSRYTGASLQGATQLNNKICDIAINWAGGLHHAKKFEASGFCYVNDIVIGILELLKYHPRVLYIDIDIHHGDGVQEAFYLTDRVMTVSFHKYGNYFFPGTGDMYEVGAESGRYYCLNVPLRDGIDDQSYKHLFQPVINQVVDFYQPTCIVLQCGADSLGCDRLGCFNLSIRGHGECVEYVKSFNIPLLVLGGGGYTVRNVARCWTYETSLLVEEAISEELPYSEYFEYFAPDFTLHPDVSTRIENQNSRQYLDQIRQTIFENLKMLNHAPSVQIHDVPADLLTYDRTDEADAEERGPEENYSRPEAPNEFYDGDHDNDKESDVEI
HDAC3 (h), sequence (Q9Y618 395-489 partner limits assumed): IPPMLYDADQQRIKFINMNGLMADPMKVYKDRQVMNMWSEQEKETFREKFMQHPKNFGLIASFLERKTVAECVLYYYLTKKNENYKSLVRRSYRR
Method: as §1

HDAC4 (h) = HDAC4 (h) (Homo sapiens, UniProt P56524); test: Epigenetic selectivity profile; type: biochemical
Method: as §1

HDAC6 (h) = HDAC6 (h) (Homo sapiens, UniProt Q9UBN7); test: Epigenetic selectivity profile; type: biochemical
Method: as §1

JARID1A (h) = JARID1A (h) (Homo sapiens, UniProt P29375); test: Epigenetic selectivity profile; type: biochemical
Method: as §1

JMJD1A (h) = JMJD1A (h) (Homo sapiens, UniProt Q9Y4C1); test: Epigenetic selectivity profile; type: biochemical
Method: as §1

JMJD2A (h) = JMJD2A (h) (Homo sapiens, UniProt O75164); test: Epigenetic selectivity profile; type: biochemical
JMJD2A (h), sequence (O75164 whole entry): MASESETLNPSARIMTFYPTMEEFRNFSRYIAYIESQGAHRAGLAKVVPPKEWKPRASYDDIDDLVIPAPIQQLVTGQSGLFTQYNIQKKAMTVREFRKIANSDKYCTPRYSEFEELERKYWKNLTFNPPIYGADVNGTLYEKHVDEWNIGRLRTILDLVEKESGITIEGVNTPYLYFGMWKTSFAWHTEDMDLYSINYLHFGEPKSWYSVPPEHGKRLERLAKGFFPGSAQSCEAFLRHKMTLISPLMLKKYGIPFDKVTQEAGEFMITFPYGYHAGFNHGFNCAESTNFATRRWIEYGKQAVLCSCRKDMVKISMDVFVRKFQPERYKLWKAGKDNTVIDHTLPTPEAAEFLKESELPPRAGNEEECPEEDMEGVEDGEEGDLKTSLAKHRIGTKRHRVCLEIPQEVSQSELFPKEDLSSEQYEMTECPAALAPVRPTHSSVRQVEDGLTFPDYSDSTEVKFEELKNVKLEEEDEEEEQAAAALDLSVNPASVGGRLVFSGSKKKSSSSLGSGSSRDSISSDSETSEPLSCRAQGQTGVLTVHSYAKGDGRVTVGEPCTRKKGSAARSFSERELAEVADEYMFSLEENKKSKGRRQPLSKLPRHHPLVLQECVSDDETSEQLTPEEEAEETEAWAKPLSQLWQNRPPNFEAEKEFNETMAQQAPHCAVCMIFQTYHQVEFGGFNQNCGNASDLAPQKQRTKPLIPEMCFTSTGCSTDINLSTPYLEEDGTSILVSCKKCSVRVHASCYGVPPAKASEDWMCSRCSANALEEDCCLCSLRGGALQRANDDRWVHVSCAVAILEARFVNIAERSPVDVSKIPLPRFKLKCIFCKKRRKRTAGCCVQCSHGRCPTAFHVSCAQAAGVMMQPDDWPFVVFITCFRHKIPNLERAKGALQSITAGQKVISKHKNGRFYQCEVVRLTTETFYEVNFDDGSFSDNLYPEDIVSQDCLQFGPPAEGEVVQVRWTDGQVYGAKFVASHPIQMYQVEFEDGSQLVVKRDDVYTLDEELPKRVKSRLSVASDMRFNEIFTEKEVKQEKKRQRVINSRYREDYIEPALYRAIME
Method: as §1

JMJD3 (h) = JMJD3 (h) (Homo sapiens, UniProt O15054); test: Epigenetic selectivity profile; type: biochemical
Method: as §1

MLL complex (h) = MLL complex (h) (Homo sapiens, UniProt Q03164); test: Epigenetic selectivity profile; type: biochemical
Method: as §1

SETD7 (h) = SETD7 (h) (Homo sapiens, UniProt Q8WTS6); test: Epigenetic selectivity profile; type: biochemical
Method: as §1

SUV39H1 (h) = SUV39H1 (h) (Homo sapiens, UniProt O43463); test: Epigenetic selectivity profile; type: biochemical
Method: as §1

[2] = target: sirtuin 1 (h) (inhibitor effect) (Homo sapiens, UniProt Q96EB6); test: Epigenetic selectivity profile; type: biochemical
Method: as §1

sirtuin 2 (h) = sirtuin 2 (h) (Homo sapiens, UniProt Q8IXJ6); test: Epigenetic selectivity profile; type: biochemical
Method: as §1

H3K9 ac = test: Epigenetic selectivity profile; type: biochemical; design: dose or concentration left out as unconfirmed
Method: as §1

[3] = system: AR (h) (agonist radioligand); test: CEREP Diversity Panel; type: binding, human; design: dose or concentration left out as unconfirmed
Method: as §1

[4] = system: ER (non-selective) (h) (agonist radioligand); test: CEREP Diversity Panel; type: binding, human; design: dose or concentration left out as unconfirmed
Method: as §1

Nc1nnc(CN[C@@H]2C[C@H]2c2ccc(OCc3ccccc3)cc2)o1 [ORY-2001, vafidemstat]
inhibition at 10 µM (Mouse recombinant KDM1B): 7%
active and passive social interaction [1]: had no effect on these parameters
number of evitations [1]: restored to normality
time without social interaction [1]: dose dependently reduced
% inhibition, any of 19 epigenetic targets (19 epigenetic targets): ≤ 15%
inhibition at 10 µM ((h)p300): 0%
inhibition at 10 µM (DNMT1 (h)): 15%
inhibition at 10 µM (DOT1L (h)): -1%
inhibition at 10 µM (FBXL10 (h)): 8%
inhibition at 10 µM (HDAC11 (h)): -2%
inhibition at 10 µM (HDAC3 (h)): -1%
inhibition at 10 µM (HDAC4 (h)): 0%
inhibition at 10 µM (HDAC6 (h)): 0%
inhibition at 10 µM (JARID1A (h)): 2%
inhibition at 10 µM (JMJD1A (h)): -11%
inhibition at 10 µM (JMJD2A (h)): 7%
inhibition at 10 µM (JMJD3 (h)): 4%
inhibition at 10 µM (MLL complex (h)): 3%
inhibition at 10 µM (SETD7 (h)): -3%
inhibition at 10 µM (SUV39H1 (h)): -7%
inhibition at 10 µM [2]: 1%
inhibition at 10 µM (sirtuin 2 (h)): 5%
% inhibition (H3K9 ac): -5%
% inhibition [3]: -2%
% inhibition [4]: 13%
